# Data from patent US7935699B2, “Pyrazole glucokinase activators” (Hoffmann-La Roche Inc., priority 2006, dated 2011).
# Legend:
# [1] = molecular target: T1, Recombinant human liver GK1 (GST-GK) (Homo sapiens, UniProt P35557); assay: Glucokinase in vitro assay (G6PDH-coupled, NADH at OD340); assay type: biochemical; settings: for SC1.5 (concentration of activator that produced a 50% increase in the activity of GK): 25° C., 5 mM D-glucose, 10% DMSO, GST-GK; for glucokinase activation (in words): qualitative statement
# T1 construct: made in house; host or cells: E. coli
# T1 sequence (P35557 1-466 isoform P35557-2): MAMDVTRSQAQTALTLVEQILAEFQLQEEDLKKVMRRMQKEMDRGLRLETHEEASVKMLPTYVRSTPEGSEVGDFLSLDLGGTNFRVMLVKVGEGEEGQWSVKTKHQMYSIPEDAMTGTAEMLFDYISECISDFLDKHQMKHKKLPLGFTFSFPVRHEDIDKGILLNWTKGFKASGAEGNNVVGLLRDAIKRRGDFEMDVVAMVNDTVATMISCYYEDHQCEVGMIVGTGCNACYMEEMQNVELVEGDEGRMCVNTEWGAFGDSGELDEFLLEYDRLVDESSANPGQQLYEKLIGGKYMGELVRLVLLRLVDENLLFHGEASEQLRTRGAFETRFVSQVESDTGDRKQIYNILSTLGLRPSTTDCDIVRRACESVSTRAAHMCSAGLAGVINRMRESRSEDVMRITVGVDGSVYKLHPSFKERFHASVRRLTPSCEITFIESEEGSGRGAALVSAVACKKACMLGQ
# Procedure: Glucokinase In Vitro Assay Protocol: Glucokinase (GK) was assayed by coupling the production of glucose-6-phosphate to the generation of NADH with glucose-6-phosphate dehydrogenase (G6PDH, 0.75-1 kunits/mg; Boehringer Mannheim, Indianapolis, Ind.) from Leuconostoc mesenteroides as the coupling enzyme (Scheme 2).
# Recombinant human liver GK1 was expressed in E. coli as a glutathione S-transferase fusion protein (GST-GK) [Liang et al, 1995] and was purified by chromatography over a glutathione-Sepharose 4B affinity column using the procedure provided by the manufacturer (Amersham Pharmacia Biotech, Piscataway, N.J.).
# The assay was conducted at 25° C. in a flat bottom 96-well tissue culture plate from Costar (Cambridge, Mass.) with a final incubation volume of 120 μL. The incubation reaction contained the following: 25 mM Hepes buffer (pH 7.1), 25 mM KCl, 5 mM D-glucose, 1 mM ATP, 1.8 mM NAD, 2 mM MgCl2, 1 μM sorbitol-6-phosphate, 1 mM dithiothreitol, test drug or 10% DMSO, 1.8 unit/ml G6PDH, and GK (see below). All organic reagents were >98% pure and were from Boehringer Mannheim with the exceptions of D-glucose and Hepes which were from Sigma Chemical Co, St Louis, Mo. Test compounds were dissolved in DMSO and were added to the incubation reaction minus GST-GK in a volume of 12 μL to yield a final DMSO concentration of 10%. This mix was pre-incubated in the temperature controlled chamber of a SPECTRAmax 250 microplate spectrophotometer (Molecular Devices Corporation, Sunnyvale, Calif.) for 10 minutes to allow temperature equilibrium and then the reaction was started by the addition of 20 μL GST-GK.
# After addition of enzyme, the increase in optical density (OD) at 340 nm was monitored over a 10 minute incubation period as a measure of GK activity. Sufficient GST-GK was added to produce an increase in OD340 of 0.08 to 0.1 units over the 10 minute incubation period in wells containing 10% DMSO but no test compound. Preliminary experiments established that the GK reaction was linear over this period of time even in the presence of activators that produced a 5-fold increase in GK activity. The GK activity in control wells was compared with the activity in wells containing test GK activators, and the concentration of activator that produced a 50% increase in the activity of GK, i.e., the SC1.5, was calculated.
# [2] = tested on: Diet-Induced Obese (DIO) C57BL/6J mice; assay: Glucokinase activator in vivo screen, blood glucose in DIO mice; settings: Mus musculus; 2 hours post 25 mg/kg oral dose in DIO mice, vs control; read-out: % gluc @ 2 H (% glucose lowering vs control)
# Procedure: Glucokinase Activator in vivo Screen Protocol in Lean and Diet Induced Obese Mice: Lean or Diet-Induced Obese (DIO) C57BL/6J mice were orally dosed via gavage with Glucokinase (GK) activator (50 mg/kg body weight for lean mice, 25 mg/kg body weight for DIO mice) following a two hour fasting period. Blood glucose determinations were made four times during the six hour post-dose study period.
# C57Bl/6J mice were obtained from Jackson Laboratory (Bar Harbor, Me.) and were maintained in a light-dark cycle with lights on from 0600-1800 hr. For studies in lean mice, the mice were received at age six weeks and given ad libitum access to control diet (LabDiet 5001 chow, PMI Nutrition, Brentwood, Mo.), and were at least age 11 weeks at the time of study. For studies in the DIO model, the mice were received at age five weeks and given ad libitum access to Bio-Serv F3282 High Fat Diet (Frenchtown, N.J.), and were at least age 16 weeks at the time of study. The experiments were conducted during the light phase of the light-dark cycle. Mice (n=6) are weighed and fasted for a two hour period prior to oral treatment. GK activators are formulated in Gelucire vehicle (Ethanol:Gelucire44/14:PEG400q.s. 4:66:30 v/w/v. For studies in lean mice, the mice were dosed orally with 5.0 μL per gram of body weight with 5 ml/kg×10.0 mg/ml formulation to equal a 50 mg/kg dose. For studies in DIO mice, the mice were dosed orally with 5.0 μL per gram of body weight with […] formulation to equal a 25 mg/kg dose. Immediately prior to dosing, a pre-dose (time zero) blood glucose reading was acquired by snipping off a small portion of the animal's tail (˜1 mm) and collecting 15 μL blood into a heparinized capillary tube for analysis. Following GK activator administration, additional blood glucose readings were taken at 2, 4 and 6 hours post dose from the same tail wound. Results were interpreted by comparing the mean blood glucose values of six vehicle treated mice with six GK activator treated mice over the six hour study duration.
SC1.5 (concentration of activator that produced a 50% increase in the activity of GK) [1] [µM],glucokinase activation (in words) [1],SMILES,change in vivo at 25 mg/kg [2] [%]
5.3,active,"CS(=O)(=O)c1ccc([C@@H](CC2CCOCC2)C(=O)Nc2ccn(CCO)n2)cc1Cl (single isomer, unassigned) [Example 76]",–
–,active,"CC(C)(O)Cn1ccc(NC(=O)[C@H](CC2CCOCC2)c2ccc(Cl)c(Cl)c2)n1 (single isomer, unassigned) [Example 88]",–
–,active,"CC(C)(O)Cn1ccc(NC(=O)[C@H](CC2COC2)c2ccc(S(C)(=O)=O)c(Cl)c2)n1 (single isomer, unassigned) [Example 92]",–
0.28,–,"CS(=O)(=O)c1ccc([C@@H](CC2CCCC2)C(=O)Nc2cc[nH]n2)cc1Cl [Example 2, 2(R)-(3-Chloro-4-methanesulfonyl-phenyl)-3-cyclopentyl-N-(1H-pyrazol-3-yl)-propionamide]",–
0.2,–,"CC(C)(C)OC(=O)CCn1ccc(NC(=O)[C@H](CC2CCCC2)c2ccc(S(C)(=O)=O)c(Cl)c2)n1 [Example 8, 3-{3-[2(R)-(3-Chloro-4-methanesulfonyl-phenyl)-3-cyclopentyl-propionylamino]-pyrazol-1-yl}-propionic acid tert-butyl ester]",–
0.45,–,"CCCNC(=O)CCn1ccc(NC(=O)[C@H](CC2CCCC2)c2ccc(S(C)(=O)=O)c(Cl)c2)n1 [Example 11, 2(R)-(3-Chloro-4-methanesulfonyl-phenyl)-3-cyclopentyl-N-[1-(2-propylcarbamoyl-ethyl)-1H-pyrazol-3-yl]-propionamide]",–
0.083,–,"CS(=O)(=O)c1ccc([C@@H](CC2CCCC2)C(=O)Nc2ccn(Cc3ccccc3)n2)cc1Cl [Example 24, N-(1-Benzyl-1H-pyrazol-3-yl)-2(R)-(3-chloro-4-methanesulfonyl-phenyl)-3-cyclopentyl-propionamide]",–
0.061,–,"COC(=O)c1ccc(Cn2ccc(NC(=O)[C@H](CC3CCCC3)c3ccc(S(C)(=O)=O)c(Cl)c3)n2)cc1 [Example 44, 4-{3-[2-(R)-(3-Chloro-4-methanesulfonyl-phenyl)-3-cyclopentyl-propionylamino]-pyrazol-1-ylmethyl}-benzoic acid methyl ester]",–
0.03,–,"COCCCNC(=O)c1ccc(Cn2ccc(NC(=O)[C@H](CC3CCCC3)c3ccc(S(C)(=O)=O)c(Cl)c3)n2)cc1 [Example 47, 4-{3-[2-(R)-(3-Chloro-4-methanesulfonyl-phenyl)-3-cyclopentyl-propionylamino]-pyrazol-1-ylmethyl}-N-(3-methoxy-propyl)-benzamide]",–
0.13,–,"CC(C)n1ccc(NC(=O)[C@H](CC2CCCC2)c2ccc(S(C)(=O)=O)c(Cl)c2)n1 [Example 56, 2-(R)(3-Chloro-4-methanesulfonyl-phenyl)-3-cyclopentyl-N-(1-isopropyl-1H-pyrazol-3-yl)-propionamide]",–
1.433,–,"O=C(Nc1ccn(CCO)n1)[C@H](CC1CCCC1)c1cccc(C(F)(F)F)c1 [Example 79, 3-Cyclopentyl-N-[1-(2-hydroxy-ethyl)-1H-pyrazol-3-yl]-2(R)-(3-trifluoromethyl-phenyl)-propionamide]",–
–,active,"CC(C)(O)Cn1ccc(NC(=O)[C@H](CC2CCOCC2)c2ccc(S(C)(=O)=O)c(Cl)c2)n1 [Example 90, 2(R)-(3-Chloro-4-methanesulfonyl-phenyl)-N-[1-(2-hydroxy-2-methyl-propyl)-1H-pyrazol-3-yl]-3-(tetrahydro-pyran-4-yl)-propionamide]",–

# More lines, now with the values behind:
SMILES,SC1.5 (concentration of activator that produced a 50% increase in the activity of GK) [1] [µM],glucokinase activation (in words) [1],change in vivo at 25 mg/kg [2] [%]
"CS(=O)(=O)c1ccc([C@@H](CC2CCCC2)C(=O)Nc2ccn(CC(=O)N3CCOCC3)n2)cc1Cl [Example 7, 2(R)-(3-Chloro-4-methanesulfonyl-phenyl)-3-cyclopentyl-N-[1-(2-morpholin-4-yl-2-oxo-ethyl)-1H-pyrazol-3-yl]-propionamide]",–,–,-15.3
"CCS(=O)(=O)n1ccc(NC(=O)[C@H](CC2CCCC2)c2ccc(S(C)(=O)=O)c(Cl)c2)n1 [Example 33, 2(R)-(3-Chloro-4-methanesulfonyl-phenyl)-3-cyclopentyl-N-(1-ethanesulfonyl-1H-pyrazol-3-yl)-propionamide]",–,–,-9.8
"CS(=O)(=O)c1ccc([C@@H](CC2CCCC2)C(=O)Nc2ccn(C[C@@H](O)CO)n2)cc1Cl [Example 35, 2-(R)-(3-Chloro-4-methanesulfonyl-phenyl)-3-cyclopentyl-N-[1-((R)-2,3-dihydroxy-propyl)-1H-pyrazol-3-yl]-propionamide]",–,–,-33.2
"CS(=O)(=O)c1ccc([C@@H](CC2CCCC2)C(=O)Nc2ccn(CC3(O)CC3)n2)cc1Cl [Example 73, 2-(R)-(3-Chloro-4-methanesulfonyl-phenyl)-3-cyclopentyl-N-[1-(1-hydroxy-cyclopropylmethyl)-1H-pyrazol-3-yl]-propionamide]",–,–,-48.5
"Cc1cc([C@@H](CC2CCCC2)C(=O)Nc2ccn(CCO)n2)ccc1S(C)(=O)=O [Example 78, 3-Cyclopentyl-N-[1-(2-hydroxy-ethyl)-1H-pyrazol-3-yl]-2(R)-(4-methanesulfonyl-3-methyl-phenyl)-propionamide]",–,–,-26.7
"COCCn1ccc(NC(=O)[C@H](CC2CCCC2)c2ccc(S(C)(=O)=O)c(C)c2)n1 [Example 81, 3-Cyclopentyl-2(R)-(4-methanesulfonyl-3-methyl-phenyl)-N-[1-(2-methoxy-ethyl)-1H-pyrazol-3-yl]-propionamide]",–,–,-31.4
"Cc1cc([C@@H](CC2CCCC2)C(=O)Nc2ccn(CCCO)n2)ccc1S(C)(=O)=O [Example 82, 3-Cyclopentyl-N-[1-(3-hydroxy-propyl)-1H-pyrazol-3-yl]-2(R)-(4-methanesulfonyl-3-methyl-phenyl)-propionamide]",–,–,-38.3
"COCCn1ccc(NC(=O)[C@H](CC2CCCC2)c2cccc(C(F)(F)F)c2)n1 [Example 84, 3-Cyclopentyl-N-[1-(2-methoxy-ethyl)-1H-pyrazol-3-yl]-2(R)-(3-trifluoromethyl-phenyl)-propionamide]",–,–,-24.5
